Results: patent US20200069644A1, “NOVEL USE OF A FORMYL PEPTIDE RECEPTOR 2/ LIPOXIN A4 RECEPTOR (FPR2/ALX) AGONIST FOR TREATMENT OF HEART FAILURE” (BRISTOL- MYERS SQUIBB COMPANY, priority 2017, published 2020)

Key:
Mouse FPR2 = target: T1, Mouse FPR2 (Mus musculus, UniProt O88536); experiment: cAMP inhibition, mouse FPR2/CHO-A12; assay type: cell-based
T1 construct: expressed in transfected cells; host or cells: CHO-A12
T1 sequence (O88536 1-351): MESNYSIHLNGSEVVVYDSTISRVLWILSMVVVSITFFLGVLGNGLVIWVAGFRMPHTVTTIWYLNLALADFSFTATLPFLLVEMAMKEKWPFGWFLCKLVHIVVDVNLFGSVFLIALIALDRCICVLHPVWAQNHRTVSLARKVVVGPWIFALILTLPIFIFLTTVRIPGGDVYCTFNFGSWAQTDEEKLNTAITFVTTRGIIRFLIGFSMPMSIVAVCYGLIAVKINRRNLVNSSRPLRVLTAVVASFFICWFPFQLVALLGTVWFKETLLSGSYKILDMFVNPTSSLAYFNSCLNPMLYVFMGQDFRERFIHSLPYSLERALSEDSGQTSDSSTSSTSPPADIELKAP
Procedure: [Worded in the source for another species; this species is reported under the same test.] (§1) A mixture of forskolin (5 μM final for FPR2 or 10 μM final for FPR1) and IBMX (200 μM final) were added to 384-well Proxiplates (Perkin-Elmer) pre-dotted with test compounds in DMSO (1% final) at final concentrations in the range of 0.1 nM to 10 μM. CHO overexpressing human FPR1 or human FPR2 receptors were cultured in F-12 (Ham's) medium supplemented with 10% qualified FBS, 250 μg/ml zeocin and 300 μg/ml hygromycin (Life Technologies). Reactions were initiated by adding 2,000 human FPR2 cells per well or 4,000 human FPR1 cells per well in Dulbecco's PBS (with calcium and magnesium) (Life Technologies) supplemented with 0.1% BSA (Perkin-Elmer). The reaction mixtures were incubated for 30 min at room temperature. The level of intracellular cAMP was determined using the HTRF HiRange cAMP assay reagent kit (Cisbio) according to manufacturer's instruction. Solutions of cryptate conjugated anti-cAMP and d2 flurorophore-labelled cAMP were made in a supplied lysis buffer separately. […] After a 1 h room temperature incubation, time-resolved fluorescence intensity was measured using the Envision (Perkin-Elmer) at 400 nm excitation and dual emission at 590 nm and 665 nm. […] The potency and activity of Compound 1 to inhibit cAMP production was then determined by fitting to a 4-parametric logistic equation from a plot of cAMP level versus compound concentrations. […]

Human FPR2 = target: T2, Human FPR2 (Homo sapiens, UniProt P25090); experiment: FPR2 cAMP assay (cAMP inhibition); assay type: cell-based
T2 construct: expressed in transfected cells; host or cells: CHO-A12
T2 sequence (P25090 1-351): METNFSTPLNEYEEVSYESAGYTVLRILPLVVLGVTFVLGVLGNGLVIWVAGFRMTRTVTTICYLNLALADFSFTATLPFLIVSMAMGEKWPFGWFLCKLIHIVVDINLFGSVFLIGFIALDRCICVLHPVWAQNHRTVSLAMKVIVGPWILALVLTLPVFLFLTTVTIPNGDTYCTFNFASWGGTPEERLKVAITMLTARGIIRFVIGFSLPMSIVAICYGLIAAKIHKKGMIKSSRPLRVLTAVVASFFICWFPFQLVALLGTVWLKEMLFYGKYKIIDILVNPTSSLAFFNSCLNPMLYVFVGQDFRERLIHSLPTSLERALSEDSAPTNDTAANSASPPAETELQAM
Procedure: as §1

[1] = test system: myocardial infarction in mice; experiment: Mouse model of permanent coronary artery occlusion, 28 days; assay type: in vivo
Procedure: Permanent coronary artery occlusion was carried out in mice using a ligature placed around the left anterior descending artery to induce myocardial infarction. Treatment with orally-administered Compound 1 (0.3 and 3 mg/kg; QD) or dosing solution without compound (QD, referred to as vehicle) was initiated 24 hours following myocardial infarction. Mice subjected to thoracotomy but not infarcted were included as surgical “sham” controls. Mice were evaluated 28 days following myocardial infarction to assess structure/function relationships. Hearts were removed from mice for histological processing to measure left ventricular dimensions, infarct areas and infarct collagen composition.
The effect of Compound 1 on left ventricle and infarct scar remodeling was evaluated in a mouse model of permanent coronary artery occlusion. MI was created by permanently ligating the left anterior descending artery with a surgical suture. Treatments (QD, PO) were initiated 24 hours after MI and were continued for 28 days. Treatments consisted of suspension vehicle and Compound 1 at 0.3 mg/kg and 3 mg/kg. A cohort of mice that were subjected to the procedure but were not infarcted were included as a “sham operated” surgical control group. At the end of 28 days of treatment, the hearts were removed for histological evaluation of left ventricle structure and scar structure.
This is a model of ischemic heart disease. Infarct size was measured within the left ventricle (LV) and reported as a percentage of the total left ventricle cross sectional area.

COc1cc(F)c([C@@H]2CNC(=O)[C@H]2NC(=O)Nc2ccccc2)c(F)c1 [Compound 1, 1-((3S,4R)-4-(2,6-difluoro-4-methoxyphenyl)-2-oxopyrrolidin-3-yl)-3-phenylurea]
selectivity for mouse FPR2 vs. FPR1 (Mouse FPR2; CHO cell lines, cAMP): 640 fold | EC50 (Mouse FPR2; Mouse FPR2/CHO-A12): 0.6 nM | selectivity for human FPR2 vs. FPR1 (Human FPR2; CHO cell lines, cAMP): 446 fold | EC50 (Human FPR2; Human FPR2/CHO-A12): 2.8 nM | infarct wall thickness, % of mean thickness of sham ([1]; 0.3 mg/kg PO QD, 28 days): 61% | reduction of LV chamber area vs. vehicle ([1]; 0.3 mg/kg PO QD, 28 days): 26% | infarct wall thickness, % of mean thickness of sham ([1]; 3 mg/kg PO QD, 28 days): 67% | reduction of LV chamber area vs. vehicle ([1]; 3 mg/kg PO QD, 28 days (trend)): 24% | reduction in LV anterior wall infarct size vs. vehicle ([1]; 3 mg/kg PO QD, 28 days, started 24 h after MI, P<0.01): 55% | wall thickness difference vs. vehicle ([1]; higher dose (3 mg/kg) PO QD, 28 days, P<0.05): 59%
